Reference: patent US10392368B2, “Pyrazolo and triazolo bicyclic compounds as JAK kinase inhibitors” (THERAVANCE BIOPHARMA R&D IP, LLC, priority 2017, dated 2019)

How the values were obtained:
[1] = system: IL-2 stimulated pSTAT5 in Tall-1 T cells; experiment: Cellular JAK3 potency assay: inhibition of IL-2 stimulated pSTAT5 in Tall-1 T cells; type: cell-based, human; settings: Homo sapiens, TALL-1, IL-2 stimulated pSTAT5 in Tall-1 T cells; read-out: Tall-1 (pIC50) (converted)
Method in brief: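 Inhibition of IL-2-induced pSTAT5 was quantified by AlphaLisa in Tall-1 cell lysates. Compound exposure lasted 1 h before 30 min stimulation with 300 ng/ml IL-2 final.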

[2] = Colon and plasma mouse pharmacokinetics; type: in vivo; settings: mouse, colon tissue / plasma; male Balb/c mice, 10 mg/kg PO; 0.5, 2 and 6 hours; read-out: colon to plasma ratio (colon AUC to plasma AUC)
Method: 6 male Balb/c mice were administered 10 mg/kg of compound in 1% HPMC+0.1% Tween-80 by PO administration. At 0.5, 2 and 6 hours after dose administration, animals were anesthetized, and terminal blood samples were collected by cardiac puncture, followed by collection of colon contents and colon tissue.
Blood samples were collected into K2EDTA and stored on wet ice until processed to plasma by centrifugation (12000 rpm at 4° C.). Plasma samples were transferred to cluster tubes and placed on dry ice prior to freezer storage. The colon contents from each animal were collected at each terminal blood collection time point. The colon tissues were flushed with saline and patted dry. The colon and colon content tissues were homogenized using sterile water containing 0.1% formic acid 9:1 (water:tissue, v/w). The homogenized tissues and colon contents were transferred to cluster tubes and placed on dry ice prior to freezer storage. All samples were analyzed using LC/MS/MS against analytical standards.
The composite pharmacokinetic parameters of the compounds were determined by non-compartmental analysis using Phoenix WinNonlin Version 6 (Certara, St. Louis, Mo.) and using mean values from 2 animals/time point. For plasma concentrations below the quantification limit (BQL), the lowest concentration measurable or the BLOQ (below limit of quantification) was used.
A colon to plasma ratio was determined as the ratio of the colon AUC to the plasma AUC.

JAK1 = target: T1, JAK1 (Homo sapiens, UniProt P23458); experiment: Biochemical JAK1 kinase assay (LanthaScreen); settings: read-out: JAK 1 (pKi) (converted)
T1 construct: GST; purchased Life Technologies
Method in brief: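 TR-FRET readout (520/495 nm) using Tb-labelled pTyr701 antibody after EDTA stop, following 1 h ATP-started phosphorylation of GFP-STAT1 by recombinant GST-JAK. Compounds preincubated 1 h with enzyme and substrate; pIC50 from 4-parameter fit, Cheng-Prusoff gives pKi.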

T1 sequence (P23458 whole entry): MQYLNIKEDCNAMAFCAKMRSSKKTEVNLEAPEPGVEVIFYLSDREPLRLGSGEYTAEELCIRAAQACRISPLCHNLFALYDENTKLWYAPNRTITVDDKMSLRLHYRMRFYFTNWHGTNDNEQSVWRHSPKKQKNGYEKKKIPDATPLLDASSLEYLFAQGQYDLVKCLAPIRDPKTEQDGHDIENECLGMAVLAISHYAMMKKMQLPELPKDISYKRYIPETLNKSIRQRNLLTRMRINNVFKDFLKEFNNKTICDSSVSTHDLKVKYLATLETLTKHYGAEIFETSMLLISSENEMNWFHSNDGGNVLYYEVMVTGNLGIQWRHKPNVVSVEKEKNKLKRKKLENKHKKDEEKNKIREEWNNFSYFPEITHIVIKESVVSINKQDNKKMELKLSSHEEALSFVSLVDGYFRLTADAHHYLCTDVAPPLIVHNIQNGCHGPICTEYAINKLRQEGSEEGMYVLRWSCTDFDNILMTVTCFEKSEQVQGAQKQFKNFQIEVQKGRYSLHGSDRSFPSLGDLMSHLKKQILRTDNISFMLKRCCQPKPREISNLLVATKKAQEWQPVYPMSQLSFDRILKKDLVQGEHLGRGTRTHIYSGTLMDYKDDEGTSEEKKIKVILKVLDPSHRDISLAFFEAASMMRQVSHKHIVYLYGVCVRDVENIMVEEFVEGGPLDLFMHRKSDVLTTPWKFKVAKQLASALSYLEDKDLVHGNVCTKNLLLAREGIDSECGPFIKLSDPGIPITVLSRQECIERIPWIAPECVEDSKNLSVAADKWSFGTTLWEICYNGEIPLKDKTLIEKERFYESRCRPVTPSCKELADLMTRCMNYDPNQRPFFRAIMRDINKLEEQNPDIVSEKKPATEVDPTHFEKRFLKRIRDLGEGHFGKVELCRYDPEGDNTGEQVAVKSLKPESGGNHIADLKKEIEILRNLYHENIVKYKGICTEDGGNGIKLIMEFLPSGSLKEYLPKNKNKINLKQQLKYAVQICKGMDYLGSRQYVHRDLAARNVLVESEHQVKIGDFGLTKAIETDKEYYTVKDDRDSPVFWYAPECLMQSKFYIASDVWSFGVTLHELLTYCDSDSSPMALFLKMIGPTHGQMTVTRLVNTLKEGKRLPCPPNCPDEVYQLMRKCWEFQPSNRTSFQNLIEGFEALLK

Structure (SMILES)	IC50 [1]	Kp [2]	Ki (JAK1)
CN(C)C/C=C/C(=O)N1CC(COc2cc(-c3ccc(O)cc3)cc3[nH]ncc23)C1 [Compound 1, (E)-4-(dimethylamino)-1-(3-(((6-(4-hydroxyphenyl)-1H-indazol-4-yl)oxy)methyl)azetidin-1-yl)but-2-en-1-one]	31.6 to 200 nM	> 1250	> 100 nM
CN(C)C/C=C/C(=O)N1CCC(C)(Oc2cc(-c3ccc(O)cc3)cc3[nH]ncc23)CC1 [Compound 9, (E)-4-(dimethylamino)-1-(4-((6-(4-hydroxyphenyl)-1H-indazol-4-yl)oxy)-4-methylpiperidin-1-yl)but-2-en-1-one]	31.6 to 200 nM	> 200	> 100 nM
CN(C)C/C=C/C(=O)N1CC(COc2cc(-c3ccc(O)c(F)c3)cc3[nH]ncc23)C1 [Compound 5, (E)-4-(dimethylamino)-1-(3-(((6-(3-fluoro-4-hydroxyphenyl)-1H-indazol-4-yl)oxy)methyl)azetidin-1-yl)but-2-en-1-one]	31.6 to 200 nM	> 200	> 100 nM
C=CC(=O)N1CC[C@H](COc2cc(-c3ccc(O)cc3)cc3[nH]ncc23)C1 [Compound 7, (S)-1-(3-(((6-(4-hydroxyphenyl)-1H-indazol-4-yl)oxy)methyl)pyrrolidin-1-yl)prop-2-en-1-one]	31.6 to 200 nM	> 1250	> 100 nM
C=CC(=O)N1CC(CC)(COc2cc(-c3ccc(O)cc3)nc3[nH]ncc23)C1 [Compound 22, 1-(3-ethyl-3-(((6-(4-hydroxyphenyl)-1H-pyrazolo[3,4-b]pyridin-4-yl)oxy)methyl)azetidin-1-yl)prop-2-en-1-one]	31.6 to 200 nM	> 1250	> 100 nM
C=CC(=O)N1CC(C)(COc2nc(-c3ccc(O)c(F)c3)nc3[nH]ncc23)C1 [Compound 21, 1-(3-(((6-(3-fluoro-4-hydroxyphenyl)-1H-pyrazolo[3,4-d]pyrimidin-4-yl)oxy)methyl)-3-methylazetidin-1-yl)prop-2-en-1-one]	31.6 to 200 nM	> 1250	> 100 nM
C=CC(=O)N1CCO[C@@H](C(=O)Nc2cc(-c3ccc(O)cc3)cc3[nH]ncc23)C1 [Compound 6, (R)-4-acryloyl-N-(6-(4-hydroxyphenyl)-1H-indazol-4-yl)morpholine-2-carboxamide]	< 31.6 nM	> 1250	> 100 nM
C=CC(=O)N1CC(C(C)(C)Oc2cc(-c3ccc(O)cc3)nc3[nH]ncc23)C1 [Compound 20, 1-(3-(2-((6-(4-hydroxyphenyl)-1H-pyrazolo[3,4-b]pyridin-4-yl)oxy)propan-2-yl)azetidin-1-yl)prop-2-en-1-one]	< 31.6 nM	> 200	> 100 nM
CN(C)C/C=C/C(=O)N1CC(C#N)(COc2cc(-c3ccc(O)c(F)c3)cc3[nH]ncc23)C1 [Compound 8, (E)-1-(4-(dimethylamino)but-2-enoyl)-3-(((6-(3-fluoro-4-hydroxyphenyl)-1Hindazol-4-yl)oxy)methyl)azetidine-3-carbonitrile]	< 31.6 nM	> 1250	> 100 nM
C=CC(=O)N1CC[C@H](Oc2cc(-c3ccc(O)c(Cl)c3)cc3[nH]ncc23)C1 [Compound 2, (S)-1-(3-((6-(3-chloro-4-hydroxyphenyl)-1H-indazol-4-yl)oxy)pyrrolidin-1-yl)prop-2-en-1-one]	< 31.6 nM	> 1250	> 100 nM
CN(C)C/C=C/C(=O)N1CC(C(C)(C)Oc2cc(-c3ccc(O)c(Cl)c3)cc3[nH]ncc23)C1 [Compound 3, (E)-1-(3-(2-((6-(3-chloro-4-hydroxyphenyl)-1H-indazol-4-yl)oxy)propan-2-yl)azetidin-1-yl)-4-(dimethylamino)but-2-en-1-one]	31.6 to 200 nM	> 1250	> 100 nM
C=CC(=O)N1CC(COc2nc(-c3ccc(O)cc3)nc3[nH]ncc23)C1 [Compound 4, 1-(3-(((6-(4-hydroxyphenyl)-1H-pyrazolo[3,4-d]pyrimidin-4-yl)oxy)methyl)azetidin-1-yl)prop-2-en-1-one]	31.6 to 200 nM	> 1250	> 100 nM
